According to patent US20210395239A1 (Hoffmann-La Roche Inc., priority 2018, published 2021):

target: T1, human TLR8 (Homo sapiens, UniProt Q9NR97); assay: HEK293-Blue-hTLR-8 cells assay (SEAP reporter, R848 stimulation); type: cell-based; conditions: HEK293-Blue-hTLR8 cells, R848, 20 hrs; read-out: HEK/hTLR8 IC50
T1 construct: host or cells: HEK293 (HEK-Blue hTLR8)
T1 sequence (Q9NR97 27-1041): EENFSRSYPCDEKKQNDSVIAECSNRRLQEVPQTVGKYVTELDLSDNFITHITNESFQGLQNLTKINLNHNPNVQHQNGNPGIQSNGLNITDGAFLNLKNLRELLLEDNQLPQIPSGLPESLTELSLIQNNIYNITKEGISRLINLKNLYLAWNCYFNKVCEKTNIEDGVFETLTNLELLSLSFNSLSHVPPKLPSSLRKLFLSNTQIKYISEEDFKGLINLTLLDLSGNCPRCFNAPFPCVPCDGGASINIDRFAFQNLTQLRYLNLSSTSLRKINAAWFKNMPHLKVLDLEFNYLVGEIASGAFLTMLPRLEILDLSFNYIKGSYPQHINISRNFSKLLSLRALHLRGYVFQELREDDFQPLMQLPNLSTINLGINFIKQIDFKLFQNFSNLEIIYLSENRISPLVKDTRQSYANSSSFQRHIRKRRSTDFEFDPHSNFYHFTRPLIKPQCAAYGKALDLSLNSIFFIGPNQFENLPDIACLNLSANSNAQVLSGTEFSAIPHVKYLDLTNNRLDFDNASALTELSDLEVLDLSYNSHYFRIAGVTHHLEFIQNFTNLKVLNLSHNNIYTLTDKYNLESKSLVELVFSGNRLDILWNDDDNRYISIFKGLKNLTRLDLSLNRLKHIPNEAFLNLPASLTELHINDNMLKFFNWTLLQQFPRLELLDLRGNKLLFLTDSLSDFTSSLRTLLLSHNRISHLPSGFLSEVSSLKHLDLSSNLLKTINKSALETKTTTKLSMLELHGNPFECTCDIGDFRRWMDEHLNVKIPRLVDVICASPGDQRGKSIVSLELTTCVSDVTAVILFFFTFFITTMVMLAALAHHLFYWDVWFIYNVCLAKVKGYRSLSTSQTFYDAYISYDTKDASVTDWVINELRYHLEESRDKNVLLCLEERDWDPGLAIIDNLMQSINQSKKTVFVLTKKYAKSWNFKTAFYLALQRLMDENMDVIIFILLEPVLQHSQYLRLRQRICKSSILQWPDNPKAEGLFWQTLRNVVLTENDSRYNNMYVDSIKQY
In short: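 Antagonism read as reduced R848-induced SEAP reporter secretion, detected by QUANTI-Blue absorbance at 620–655 nm after 2 h. Reporter cells were exposed to compound dilutions in DMEM/10% FBS, 1% DMSO, for 20 h at 37° C.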

SMILES | IC50
CO[C@H]1CN(c2nc(C)cc(N3CCN(C[C@H]4CN(c5ccc(C#N)c6ncccc56)C[C@@H](C)O4)CC3)n2)CC1N (relative stereo) [Example 59, 5-[(2R,6S)-2-methyl-6-[[4-[6-methyl-2-[trans-3-amino-4-methoxy-pyrrolidin-1-yl]pyrimidin-4-yl]piperazin-1-yl]methyl]morpholin-4-yl]quinoline-8-carbonitrile] | 3 nM
Cc1cc(N2CCN(C[C@H]3CN(c4ccc(C#N)c5ncccc45)C[C@@H](C)O3)CC2)nc(N2CC(N)C(F)C2)n1 (stereo in doubt) [Example 54, 5-[(2S,6R)-2-[[4-[2-[(3S,4R)-3-amino-4-fluoro-pyrrolidin-1-yl]-6-methyl-pyrimidin-4-yl]piperazin-1-yl]methyl]-6-methyl-morpholin-4-yl]quinoline-8-carbonitrile] | 3 nM
COC1CN(c2ccc(C3CN(C[C@H]4CN(c5cc(=O)n(C)c6ncccc56)C[C@@H](C)O4)C3)cc2)C[C@H]1N (stereo in doubt) [Example 172, 4-[(2S,6R)-2-[[3-[4-[(3R,4R)-3-amino-4-methoxy-pyrrolidin-1-yl]phenyl]azetidin-1-yl]methyl]-6-methyl-morpholin-4-yl]-1-methyl-1,8-naphthyridin-2-one] | 93 nM
C[C@@H]1CN(c2cc(=O)n(C)c3ncccc23)C[C@H](CN2CC(c3ccc(N4CC(F)[C@H](N)C4)cc3)C2)O1 (stereo in doubt) [Example 174, 4-[(2S,6R)-2-[[3-[4-[(3R,4R)-3-amino-4-fluoro-pyrrolidin-1-yl]phenyl]azetidin-1-yl]methyl]-6-methyl-morpholin-4-yl]-1-methyl-1,8-naphthyridin-2-one] | 159 nM
C[C@@H]1CN(c2ccc(C#N)n3ncc(F)c23)C[C@H](CN2CCN(c3ccc(C4CNCCO4)cc3F)CC2)O1 (stereo in doubt) [Example 183, 3-fluoro-4-[(2S,6R)-2-[[4-[2-fluoro-4-[(2S)-morpholin-2-yl]phenyl]piperazin-1-yl]methyl]-6-methyl-morpholin-4-yl]pyrazolo[1,5-a]pyridine-7-carbonitrile] | 13 nM
C[C@@H]1CN(c2ccc(C#N)c3ncccc23)C[C@H](CN2CCN(c3cccc(N4CCNCC4)n3)CC2)O1 [Example 10, 5-[(2R,6S)-2-methyl-6-[[4-(6-piperazin-1-yl-2-pyridyl)piperazin-1-yl]methyl]morpholin-4-yl]quinoline-8-carbonitrile] | 10 nM
C[C@@H]1CN(c2ccc(C#N)c3ncccc23)C[C@H](CN2CCN(c3cnc(N4CCNCC4)nc3)CC2)O1 [Example 12, 5-[(2R,6S)-2-methyl-6-[[4-(2-piperazin-1-ylpyrimidin-5-yl)piperazin-1-yl]methyl]morpholin-4-yl]quinoline-8-carbonitrile] | 3 nM
C[C@@H]1CN(c2ccc(C#N)c3ncccc23)C[C@H](CN2CCN(c3ccc(N4CCNCC4)nc3)CC2)O1 [Example 13, 5-[(2R,6S)-2-methyl-6-[[4-(6-piperazin-1-yl-3-pyridyl)piperazin-1-yl]methyl]morpholin-4-yl]quinoline-8-carbonitrile] | 5 nM
C[C@@H]1CN(c2ccc(C#N)c3ncccc23)C[C@H](CN2CCN(c3ncc(N4CCNCC4)cn3)CC2)O1 [Example 17, 5-[(2R,6S)-2-methyl-6-[[4-(5-piperazin-1-ylpyrimidin-2-yl)piperazin-1-yl]methyl]morpholin-4-yl]quinoline-8-carbonitrile] | 6 nM
C[C@@H]1CN(c2ccc(C#N)c3ncccc23)C[C@H](CN2CCN(c3cc(N4CCNCC4)ncn3)CC2)O1 [Example 18, 5-[(2R,6S)-2-methyl-6-[[4-(6-piperazin-1-ylpyrimidin-4-yl)piperazin-1-yl]methyl]morpholin-4-yl]quinoline-8-carbonitrile] | 6 nM
C[C@@H]1CN(c2ccc(C#N)c3ncccc23)C[C@H](CN2CCN(c3ccc([C@H]4CNCCO4)cc3)CC2)O1 [Example 20, 5-[(2R,6S)-2-methyl-6-[[4-[4-[(2S)-morpholin-2-yl]phenyl]piperazin-1-yl]methyl]morpholin-4-yl]quinoline-8-carbonitrile] | 10 nM
C[C@@H]1CN(c2ccc(C#N)c3ncccc23)C[C@H](CN2CCN(c3ccnc(N4CC(N)C4)n3)CC2)O1 [Example 23, 5-[(2S,6R)-2-[[4-[2-(3-aminoazetidin-1-yl)pyrimidin-4-yl]piperazin-1-yl]methyl]-6-methyl-morpholin-4-yl]quinoline-8-carbonitrile] | 18 nM
CO[C@H]1CN(c2nccc(N3CCN(C[C@H]4CN(c5ccc(C#N)c6ncccc56)C[C@@H](C)O4)CC3)n2)C[C@@H]1N [Example 26, 5-[(2S,6R)-2-[[4-[2-trans-(3-amino-4-methoxy-pyrrolidin-1-yl)pyrimidin-4-yl]piperazin-1-yl]methyl]-6-methyl-morpholin-4-yl]quinoline-8-carbonitrile] | 3 nM
C[C@@H]1CN(c2ccc(C#N)c3ncccc23)C[C@H](CN2CCN(c3ccnc(N4CCC(N)CC4)n3)CC2)O1 [Example 27, 5-[(2S,6R)-2-[[4-[2-(4-amino-1-piperidyl)pyrimidin-4-yl]piperazin-1-yl]methyl]-6-methyl-morpholin-4-yl]quinoline-8-carbonitrile] | 3 nM
C[C@@H]1CN(c2ccc(C#N)c3ncccc23)C[C@H](CN2CCN(c3ccnc(NC4CNC4)n3)CC2)O1 [Example 28, 5-[(2S,6R)-2-[[4-[2-(azetidin-3-ylamino)pyrimidin-4-yl]piperazin-1-yl]methyl]-6-methyl-morpholin-4-yl]quinoline-8-carbonitrile] | 4 nM
C[C@@H]1CN(c2ccc(C#N)c3ncccc23)C[C@H](CN2CCN(c3ccnc(OCCN(C)C)n3)CC2)O1 [Example 30, 5-[(2S,6R)-2-[[4-[2-[2-(dimethylamino)ethoxy]pyrimidin-4-yl]piperazin-1-yl]methyl]-6-methyl-morpholin-4-yl]quinoline-8-carbonitrile] | 6 nM
C[C@@H]1CN(c2ccc(C#N)c3ncccc23)C[C@H](CN2CCN(c3ccnc(N4CCN(C(=O)[C@@H]5CCCN5)CC4)n3)CC2)O1 [Example 31, 5-[(2R,6S)-2-methyl-6-[[4-[2-[4-[(2S)-pyrrolidine-2-carbonyl]piperazin-1-yl]pyrimidin-4-yl]piperazin-1-yl]methyl]morpholin-4-yl]quinoline-8-carbonitrile] | 5 nM
C[C@@H]1CN(c2ccc(C#N)c3ncccc23)C[C@H](CN2CCN(c3ccnc(N4CCN(C(=O)CN(C)C)CC4)n3)CC2)O1 [Example 32, 5-[(2S,6R)-2-[[4-[2-[4-[2-(dimethylamino)acetyl]piperazin-1-yl]pyrimidin-4-yl]piperazin-1-yl]methyl]-6-methyl-morpholin-4-yl]quinoline-8-carbonitrile] | 3 nM
C[C@@H]1CN(c2ccc(C#N)c3ncccc23)C[C@H](CN2CCN(c3cccc(N4CCN(C)CC4)n3)CC2)O1 [Example 33, 5-[(2R,6S)-2-methyl-6-[[4-[6-(4-methylpiperazin-1-yl)-2-pyridyl]piperazin-1-yl]methyl]morpholin-4-yl]quinoline-8-carbonitrile] | 7 nM
C[C@@H]1CN(c2ccc(C#N)c3ncccc23)C[C@H](CN2CCN(c3ccnc(N4CCN(C(=O)C5CCN5)CC4)n3)CC2)O1 (stereo partly drawn) [Example 34, 5-[(2S,6R)-2-[[4-[2-[4-(azetidine-2-carbonyl)piperazin-1-yl]pyrimidin-4-yl]piperazin-1-yl]methyl]-6-methyl-morpholin-4-yl]quinoline-8-carbonitrile] | 4 nM
